Here are results for 1 substance from patent publication US9393193B2, “Compositions for controlling heartworm infestation” (CEVA SANTA ANIMALE, priority 2010, dated 2016).

The test system of one data set is Dirofilaria. Description: Effective plasma rate of ivermectin established by the applicant. The format is in vivo. The text has this:
Thus, the formulations according to the present invention provide a long term protection, e.g., at least 6 months for the collar, strip collar, or medallion formulation against infections caused by parasites.

A further data set deals with Dirofilaria larvae. As to conditions: cited from earlier work.
For data set [1] the following is noted: beagle dogs, cited from earlier work.
For data set [2] the following is noted: 14-week oral, cited from earlier work.
For data set [3] the following is noted: estimated from reports from non recommended use; cited from earlier work.

Bounds are passed on as bounds.

As for ivermectin, the “Effective rate of ivermectin in the plasma” value in the data set with Dirofilaria is reported as “around 0.1 ng/mL”; with Dirofilaria larvae (Cunningham C P et al., Am. J. Vet. Res., 2006), at least 0.2 ng/mL. Moreover, the “Effect on one month aged Dirofilaria larvae” value with Dirofilaria larvae (ivermectin per se at 6 mcg/kg) is “able to kill efficiency one month aged Dirofilaria larvae”. In addition, the “Time course of H2B1a concentration in plasma” value in data set [1] (oral 0.5 and 2.0 mg/kg bw) is “reached steady-state after about three weeks”. In addition, in data set [1] (oral 0.5 vs 2.0 mg/kg bw), the “Average increase in plasma levels on a four-fold increase in the dose” value is given as “eight-fold increase”. Further, the “Severe findings, dogs killed prior to the end of the study” value in data set [2] (2.0 mg/kg bw group, four dogs) was “tremors, ataxia, anorexia and dehydration”. The Findings observed entry in data set [2] (1.0 and 2.0 mg/kg bw, beagle dogs) was “mydriasis and slight weight loss”. Further, the “No Observable Effect Level (NOEL)” value in data set [2] (beagle dogs) was 0.5 mg/kg bw. The “Share of collie dogs highly sensitive to ivermectin” value in data set [3] is listed as “Approximately 30%”.
